Results on 2 compounds are retold here after US20260102628A1, “METHOD AND APPARATUS FOR MONITORING OF PHOTODYNAMIC-THERAPY PRECURSOR STATES FOR ENHANCED THERAPEUTIC EFFICIENCY” (priority 2022, published 2026).

The structures appear in SMILES notation.

The test in a line: Optical fiber-coupled TRAST curves of IR700 in tissue and PBS buffer solution, with and without ascorbic acid. Format: physicochemical. The following applies: IR700 in tissue or PBS buffer solution, FIG. 6B. The source says: FIG. 6A illustrates the presently disclosed embodiment of a system for PDT (611), wherein the system is arranged such that the same excitation-light-delivering fiber(s) also are arranged as detection fiber(s). The system may thus be arranged to carry out a method for PDT as disclosed elsewhere herein.
The system (611) typically comprises an intensity-modulated excitation light (605), e.g. from a laser (601) and an AOM (602). The excitation light (605) is applied, e.g. lensed by an objective (603), via a gradient-index multimode optical fiber (604), into a sample (609, tissue or water solution). […] The fluorescence plotted in the TRAST curves (612), corresponds to the (average) fluorescence from the PS compounds generated by the (modulated) excitation at the fiber end, which was collected (606) by the same fiber (604), passed through the fiber, through a dichroic mirror (607), and was then detected in a region-of-interest (ROI) within the field of detection of a camera (608). While only one fiber is shown in FIG. 6A, the system may comprise multiple fibers, into which excitation light from one or several lasers is introduced, and via which fluorescence detected from their fiber-ends is fed to different ROIs detected on the camera pixel array, and/or to a set of point detectors. […]

As for `O=C1O[C@H]([C@@H](O)CO)C(O)=C1O` [ascorbic acid], for the setting “after addition of ascorbic acid”, the “time range of the prominent relaxation in the TRAST curves, attributed to build-up of a photo-reduced radical state population in IR700” value was roughly 0.1 ms.
As to `C[Si](C)(CCC[N+](CCCS(=O)(=O)[O-])(CCCS(=O)(=O)[O-])CCCS(=O)(=O)[O-])O[Si]1(O[Si](C)(C)CCC[N+](CCCS(=O)(=O)[O-])(CCCS(=O)(=O)[O-])CCCS(=O)(=O)[O-])n2c3c4ccccc4c2N=C2N=C(N=c4c5ccccc5c(n41)=NC1=NC(=N3)c3ccccc31)c1cccc(OCCCOC(=O)NCCCCCC(=O)ON3C(=O)CCC3=O)c12.[Na+].[Na+].[Na+].[Na+]` (centres unmarked) [IR700, IRdye700DX], the “time range of the faster major relaxation in the TRAST curves, attributed to T1 build-up” value is listed as “microsecond time range”.
